Read-outs that look alike come from different tables or passages of the source.
How the values were obtained:
[1] = tested on: M. tuberculosis ΔpanCDΔlysA; assay type: cell-based; settings: for Growth inhibition of M. tuberculosis ΔpanCDΔlysA: 7 days in culture, tested up to 100 μM, inhibition only at 100 μM
mycobacterial Lpd (mLpd) = biological target: T1, mycobacterial Lpd (mLpd) (Mycobacterium tuberculosis, UniProt P9WHH9); assay type: biochemical
T1 sequence (P9WHH9 1-464): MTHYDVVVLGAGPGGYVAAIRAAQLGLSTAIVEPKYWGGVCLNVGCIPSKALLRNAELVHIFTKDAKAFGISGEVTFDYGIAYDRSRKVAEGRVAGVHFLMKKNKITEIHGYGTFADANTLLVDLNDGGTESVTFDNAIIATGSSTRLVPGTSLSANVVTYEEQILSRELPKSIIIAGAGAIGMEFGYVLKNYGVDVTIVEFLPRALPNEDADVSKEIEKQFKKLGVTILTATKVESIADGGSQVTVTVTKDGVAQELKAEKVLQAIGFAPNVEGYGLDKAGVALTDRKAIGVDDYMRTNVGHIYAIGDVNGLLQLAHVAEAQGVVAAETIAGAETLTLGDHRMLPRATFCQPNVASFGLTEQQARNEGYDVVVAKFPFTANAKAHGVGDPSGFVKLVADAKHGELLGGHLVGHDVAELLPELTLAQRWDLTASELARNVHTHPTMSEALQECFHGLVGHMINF

Mtb = settings: ref [20]; cited from earlier work
M. bovis BCG = assay type: cell-based
human Lpd (hLpd) = biological target: T2, human Lpd (hLpd) (Homo sapiens, UniProt P09622); experiment: Human Lpd inhibition, DTNB assay with 10 μM lipoamide; assay type: biochemical; settings: highest concentration tested 100 μM
T2 sequence (P09622 36-509): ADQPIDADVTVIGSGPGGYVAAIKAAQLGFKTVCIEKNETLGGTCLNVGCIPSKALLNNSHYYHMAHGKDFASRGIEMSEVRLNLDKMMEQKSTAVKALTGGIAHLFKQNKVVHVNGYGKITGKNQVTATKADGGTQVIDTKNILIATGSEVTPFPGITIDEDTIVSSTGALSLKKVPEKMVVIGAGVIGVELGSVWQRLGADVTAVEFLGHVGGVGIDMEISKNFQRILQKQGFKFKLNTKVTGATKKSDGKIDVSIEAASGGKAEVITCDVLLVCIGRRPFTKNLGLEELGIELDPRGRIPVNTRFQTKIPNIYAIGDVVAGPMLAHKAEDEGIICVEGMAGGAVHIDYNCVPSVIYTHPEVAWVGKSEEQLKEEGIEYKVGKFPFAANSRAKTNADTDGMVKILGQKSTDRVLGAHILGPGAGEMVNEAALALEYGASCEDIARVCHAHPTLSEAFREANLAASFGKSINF

M. tuberculosis H37Rv = experiment: Metabolic profiling of Mtb intracellular metabolites; assay type: cell-based, Mycobacterium tuberculosis; settings: Mtb exposed to 75 μM

SMILES: COC(=O)[C@H]1[C@H]2C[C@@H]3c4[nH]c5cc(OC)ccc5c4CCN3C[C@H]2C[C@@H](OC(=O)c2cc(OC)c(OC)c(OC)c2)[C@@H]1OC [reserpine, reference compound]
- Growth inhibitory effect on Mtb on its own ([1]; 25 μM): no growth inhibitory effect

SMILES: CCN(Cc1ccccc1)C(=O)CN(C)S(=O)(=O)c1cc(Br)cnc1N [E114-0951]
- Loss of potency (mycobacterial Lpd (mLpd)): 100 fold

SMILES: Nc1ccc(S(N)(=O)=O)cc1 [sulfanilamide]
- Growth inhibitory effect on Mtb (Mtb): little or no growth inhibitory effect

SMILES: Cc1cc(NS(=O)(=O)c2ccc(N)cc2)no1 [Sulfamethoxazole]
- Growth inhibitory effect on Mtb (Mtb): little or no growth inhibitory effect

SMILES: CN(CC(=O)Nc1ccc(F)c(Cl)c1)S(=O)(=O)c1cc(Br)cnc1N [SL418]
- Growth inhibition of M. tuberculosis ΔpanCDΔlysA [1]: No growth inhibition
- Growth inhibition of M. bovis BCG (M. bovis BCG; 7 days in culture, tested up to 100 μM, inhibition only at 100 μM): No growth inhibition
- Inhibition of hLpd (human Lpd (hLpd)): did not inhibit

SMILES: Nc1ncc(Br)cc1S(=O)(=O)NCCC(=O)Nc1cccc(Cl)c1 [K906-3123]
- Loss of potency (mycobacterial Lpd (mLpd)): even greater loss of potency

SMILES: CN(Cc1ccccc1)C(=O)CN(C)S(=O)(=O)c1cc(Br)cnc1N [E144-0828]
- Loss of potency (mycobacterial Lpd (mLpd)): 100 fold

SMILES: COc1ccc(CCN(C)CCCC(C#N)(c2ccc(OC)c(OC)c2)C(C)C)cc1OC (centres unmarked) [verapamil, reference compound]
- Growth inhibitory effect on Mtb on its own ([1]; 50 μM): no growth inhibitory effect

SMILES: COc1ccc(NC(=O)CN(C)S(=O)(=O)c2cc(Br)cnc2N)cc1 [SL827, 2-(2-amino-5-bromo-N-methylpyridine-3-sulfonamido)-N-(4-methoxyphenyl)acetamide]
- Growth inhibition of M. tuberculosis ΔpanCDΔlysA [1]: No growth inhibition
- Growth inhibition of M. bovis BCG (M. bovis BCG): No growth inhibition
- Changes in alanine, valine and leucine levels (M. tuberculosis H37Rv): no changes
- Inhibition of hLpd (human Lpd (hLpd)): did not inhibit

From publication PMC3894633 (Biochemistry, 2013)
